Assay results as given in ChEMBL document CHEMBL3616371, “Synthesis of BF₃ catalyzed Mannich derivatives with excellent ee from phenylpropanolamine, study of their antimicrobial activity and molecular docking” (2015).
≈ marks a conversion by molar mass, not a printed value.

Tests used:
[1] = test system: Staphylococcus aureus; experiment: Antibacterial activity against Staphylococcus aureus assessed as growth inhibition at 1 mg/well after 24 hrs by Well method; type: functional
[2] = test system: Staphylococcus epidermidis; experiment: Antibacterial activity against Staphylococcus epidermidis assessed as growth inhibition at 1 mg/well after 24 hrs by Well method; type: functional
[3] = test system: Staphylococcus aureus; experiment: Antibacterial activity against methicillin-resistant Staphylococcus aureus assessed as growth inhibition at 1 mg/well after 24 hrs by Well method; type: functional
[4] = test system: Salmonella typhimurium; experiment: Antibacterial activity against Salmonella typhimurium assessed as growth inhibition at 1 mg/well after 24 hrs by Well method; type: functional, Salmonella enterica subsp. enterica serovar Typhimurium
[5] = test system: Proteus vulgaris; experiment: Antibacterial activity against Proteus vulgaris assessed as growth inhibition at 1 mg/well after 24 hrs by Well method; type: functional
[6] = test system: Micrococcus luteus; experiment: Antibacterial activity against Micrococcus luteus assessed as growth inhibition at 1 mg/well after 24 hrs by Well method; type: functional
[7] = test system: Klebsiella pneumoniae; experiment: Antibacterial activity against Klebsiella pneumoniae assessed as growth inhibition at 1 mg/well after 24 hrs by Well method; type: functional
[8] = test system: Shigella flexneri; experiment: Antibacterial activity against Shigella flexneri assessed as growth inhibition at 1 mg/well after 24 hrs by Well method; type: functional
[9] = test system: Bacillus subtilis; experiment: Antibacterial activity against Bacillus subtilis assessed as growth inhibition at 1 mg/well after 24 hrs by Well method; type: functional
[10] = test system: Pseudomonas aeruginosa; experiment: Antibacterial activity against Pseudomonas aeruginosa assessed as growth inhibition at 1 mg/well after 24 hrs by Well method; type: functional
[11] = test system: Candida albicans; experiment: Antifungal activity against Candida albicans assessed as growth inhibition at 1 mg/well after 48 hrs by Well method; type: functional
[12] = test system: Malassezia pachydermatis; experiment: Antifungal activity against Malassezia pachydermatis assessed as growth inhibition at 1 mg/well after 48 hrs by Well method; type: functional
[13] = test system: Staphylococcus aureus; experiment: Antibacterial activity against Staphylococcus aureus after 24 hrs by two fold serial dilution method; type: functional
[14] = test system: Staphylococcus epidermidis; experiment: Antibacterial activity against Staphylococcus epidermidis after 24 hrs by two fold serial dilution method; type: functional
[15] = test system: Staphylococcus aureus; experiment: Antibacterial activity against methicillin-resistant Staphylococcus aureus after 24 hrs by two fold serial dilution method; type: functional
[16] = test system: Salmonella typhimurium; experiment: Antibacterial activity against Salmonella typhimurium after 24 hrs by two fold serial dilution method; type: functional, Salmonella enterica subsp. enterica serovar Typhimurium; conditions: Salmonella enterica
[17] = test system: Proteus vulgaris; experiment: Antibacterial activity against Proteus vulgaris after 24 hrs by two fold serial dilution method; type: functional
[18] = test system: Micrococcus luteus; experiment: Antibacterial activity against Micrococcus luteus after 24 hrs by two fold serial dilution method; type: functional
[19] = test system: Klebsiella pneumoniae; experiment: Antibacterial activity against Klebsiella pneumoniae after 24 hrs by two fold serial dilution method; type: functional
[20] = test system: Shigella flexneri; experiment: Antibacterial activity against Shigella flexneri after 24 hrs by two fold serial dilution method; type: functional
[21] = test system: Bacillus subtilis; experiment: Antibacterial activity against Bacillus subtilis after 24 hrs by two fold serial dilution method; type: functional
[22] = test system: Pseudomonas aeruginosa; experiment: Antibacterial activity against Pseudomonas aeruginosa after 24 hrs by two fold serial dilution method; type: functional
[23] = test system: Candida albicans; experiment: Antifungal activity against Candida albicans after 48 to 72 hrs by two fold serial dilution method; type: functional
[24] = test system: Malassezia pachydermatis; experiment: Antifungal activity against Malassezia pachydermatis after 48 to 72 hrs by two fold serial dilution method; type: functional
[25] = test system: Klebsiella aerogenes; experiment: Antibacterial activity against Enterobacter aerogenes assessed as growth inhibition at 1 mg/well after 24 hrs by Well method; type: functional
[26] = test system: Klebsiella aerogenes; experiment: Antibacterial activity against Enterobacter aerogenes after 24 hrs by two fold serial dilution method; type: functional
[27] = test system: Aspergillus flavus; experiment: Antifungal activity against Aspergillus flavus assessed as growth inhibition at 1 mg/well after 48 hrs by Well method; type: functional
[28] = test system: Salmonella enterica subsp. enterica serovar Paratyphi B; experiment: Antibacterial activity against Salmonella paratyphi B after 24 hrs by two fold serial dilution method; type: functional
[29] = test system: Aspergillus flavus; experiment: Antifungal activity against Aspergillus flavus after 48 to 72 hrs by two fold serial dilution method; type: functional
[30] = test system: Salmonella enterica subsp. enterica serovar Paratyphi B; experiment: Antibacterial activity against Salmonella paratyphi B assessed as growth inhibition at 1 mg/well after 24 hrs by Well method; type: functional

| SMILES | inhibition zone (IZ) [1] | inhibition zone (IZ) [2] | inhibition zone (IZ) [3] | inhibition zone (IZ) [4] | inhibition zone (IZ) [5] | inhibition zone (IZ) [6] | inhibition zone (IZ) [7] | inhibition zone (IZ) [8] | inhibition zone (IZ) [9] | inhibition zone (IZ) [10] | MIC [13] | MIC [15] | MIC [16] | MIC [17] | MIC [18] | MIC [20] | MIC [21] | MIC [22] | inhibition zone (IZ) [25] | MIC [26] | also measured |
| --- | --- | --- | --- | --- | --- | --- | --- | --- | --- | --- | --- | --- | --- | --- | --- | --- | --- | --- | --- | --- | --- |
| C[C@H](NCCC(=O)c1ccccc1)[C@H](O)c1ccccc1.Cl | 27 mm | 34 mm | 27 mm | 26 mm | 25 mm | 30 mm | 21 mm | 20 mm | 18 mm | 20 mm | 12.5 µg/mL | 12.5 µg/mL | 12.5 µg/mL | 12.5 µg/mL | 6.25 µg/mL | 50 µg/mL | 25 µg/mL | 25 µg/mL | 28 mm | 6.25 µg/mL | inhibition zone (IZ) [11]: 16 mm; inhibition zone (IZ) [12]: 12 mm; MIC [14]: 3.13 µg/mL; MIC [19]: 25 µg/mL; MIC [23]: 50 µg/mL; MIC [24]: > 50 µg/mL |
| C[C@@H](NCCC(=O)c1ccccc1)[C@@H](O)c1ccccc1.Cl | 22 mm | 26 mm | 28 mm | 22 mm | 24 mm | 28 mm | 19 mm | 22 mm | 20 mm | 22 mm | 25 µg/mL | 6.25 µg/mL | 25 µg/mL | 25 µg/mL | 12.5 µg/mL | 25 µg/mL | 25 µg/mL | 12.5 µg/mL | 20 mm | 50 µg/mL | inhibition zone (IZ) [11]: 15 mm; inhibition zone (IZ) [12]: 14 mm; MIC [14]: 12.5 µg/mL; MIC [19]: 50 µg/mL; MIC [23]: 50 µg/mL; MIC [24]: 50 µg/mL |
| C[C@H](NCCC(=O)c1ccc(Cl)cc1)[C@H](O)c1ccccc1.Cl | 26 mm | 28 mm | 29 mm | 24 mm | 25 mm | 28 mm | 11 mm | 22 mm | 19 mm | 20 mm | 50 µg/mL | 25 µg/mL | 50 µg/mL | 25 µg/mL | 50 µg/mL | 25 µg/mL | 25 µg/mL | 25 µg/mL | 25 mm | 50 µg/mL | inhibition zone (IZ) [12]: 12 mm; inhibition zone (IZ) [27]: 15 mm; MIC [14]: 25 µg/mL; MIC [28]: > 50 µg/mL; MIC [19]: 50 µg/mL; MIC [29]: 50 µg/mL |
| COc1ccc(C(=O)CCN[C@H](C)[C@@H](O)c2ccccc2)cc1.Cl | 20 mm | 24 mm | 22 mm | 18 mm | 22 mm | 19 mm | 16 mm | 24 mm | 22 mm | 18 mm | 12.5 µg/mL | 6.25 µg/mL | 25 µg/mL | 12.5 µg/mL | 12.5 µg/mL | 25 µg/mL | 25 µg/mL | 25 µg/mL | 19 mm | 12.5 µg/mL | inhibition zone (IZ) [30]: 14 mm; inhibition zone (IZ) [27]: 16 mm; MIC [14]: 6.25 µg/mL; MIC [19]: > 50 µg/mL; MIC [24]: > 50 µg/mL; MIC [29]: 50 µg/mL |
| C[C@@H](NCCC(=O)c1ccc(Cl)cc1Cl)[C@@H](O)c1ccccc1.Cl | 37 mm | 34 mm | 34 mm | 34 mm | 33 mm | 28 mm |  | 32 mm | 26 mm | 24 mm | 3.13 µg/mL | 3.13 µg/mL | 3.13 µg/mL | 3.13 µg/mL | 6.25 µg/mL | 3.13 µg/mL | 6.25 µg/mL | 6.25 µg/mL | 35 mm | 3.13 µg/mL | inhibition zone (IZ) [30]: 16 mm; MIC [14]: 3.13 µg/mL; MIC [28]: 50 µg/mL |
| CC(=O)N1CCN(c2ccc(OCC3COC(Cn4ccnc4)(c4ccc(Cl)cc4Cl)O3)cc2)CC1 (centres undefined) [KETOCONAZOLE] |  |  |  |  |  |  |  |  |  |  |  |  |  |  |  |  |  |  |  |  | inhibition zone (IZ) [11]: 28 mm; inhibition zone (IZ) [12]: 26 mm; inhibition zone (IZ) [27]: 24 mm; MIC [23]: 25 µg/mL (≈ 47 µM); MIC [24]: 25 µg/mL (≈ 47 µM); MIC [29]: < 12.5 µg/mL |
| CN[C@@H]1[C@H](O[C@H]2[C@H](O[C@H]3[C@H](O)[C@@H](O)[C@H](N=C(N)N)[C@@H](O)[C@@H]3N=C(N)N)O[C@@H](C)[C@]2(O)C=O)O[C@@H](CO)[C@H](O)[C@H]1O [STREPTOMYCIN] | 14 mm |  | 30 mm | 24 mm | 30 mm | 26 mm | 20 mm | 30 mm | 22 mm | 30 mm | 6.25 µg/mL (≈ 10.7 µM) | 6.25 µg/mL (≈ 10.7 µM) | 6.25 µg/mL (≈ 10.7 µM) | 6.25 µg/mL (≈ 10.7 µM) | 6.25 µg/mL (≈ 10.7 µM) | 6.25 µg/mL (≈ 10.7 µM) | 25 µg/mL (≈ 43 µM) | 25 µg/mL (≈ 43 µM) | 22 mm | 25 µg/mL (≈ 43 µM) | inhibition zone (IZ) [30]: 18 mm; MIC [28]: 30 µg/mL (≈ 51.6 µM); MIC [19]: 25 µg/mL (≈ 43 µM) |
